For 80 compounds, RP-LC retention time results are on record in the METLIN SMRT retention time set (Domingo-Almenara et al. 2019).

The structures appear in SMILES notation.

The nature of this data set: gradient 5% acetonitrile 3 min, to 50% in 2 min, to 85% in 15 min, held 3 min, 100 µL/min. To be noted: column: Zorbax Extend-C18 2.1 x 50 mm; eluents: water / acetonitrile, 0.1% formic acid. The method in brief: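 Standards, all pure, were combined into mixtures of ~100 molecules and run at 100 μL/min on a Zorbax Extend-C18 column (2.1 × 50 mm, 1.8 μm) with water and acetonitrile, each containing 0.1% formic acid. A coupled quadrupole time-of-flight mass spectrometer operated in positive and negative ionization mode. Retention time values come from computationally picked adduct peaks, each inspected manually.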
Compound `COc1cccc(-c2noc(-c3nc(-c4ccc5c(c4)OCO5)no3)n2)c1OC` returned an RP-LC retention time of 1150 s.

`Cc1cc(C(=O)NC2CCCC2)c2cc(F)ccc2n1`: the RP-LC retention time turned out to be 710 s.

On to `Cc1nn(-c2ccccc2)c2c1N(CC(=O)Nc1ccc(F)cc1F)C(=O)CS2`, for which the RP-LC retention time amounted to 852 s.

Compound `Cc1ccc(NC(=O)N2CCC(n3cnc4ccc(F)cc4c3=O)CC2)cc1F` registered an RP-LC retention time of 842 s.

As for `O=C1CN(C(=O)c2cnccn2)c2ccccc2N1`, the RP-LC retention time came to 569 s.

`COc1cccc(-c2cc3n(n2)C(NCCc2cccs2)CNC3=O)c1` (stereo not given) displayed an RP-LC retention time of 838 s.

Take `CC(C)c1nc(-n2cccc2)sc1C(=O)NCCCN1CCCCC1`: the RP-LC retention time amounted to 719 s.

Take `COc1ccc(NC(=O)c2csc(-c3cn(C)c4ncccc34)n2)cc1`: the RP-LC retention time is 923 s.

Compound `CCCn1cc(CCNS(=O)(=O)c2ccc(F)cc2Cl)c2cccnc21` displayed an RP-LC retention time of 877 s.

For the compound `CC(C)CCN1CCC(N(C(=O)NCCc2ccccc2)C2CCOCC2)CC1`, the RP-LC retention time came to 700 s.

Compound `CCOc1ccc(N2CC(c3nc(-c4ccc(OC)cc4)no3)CC2=O)cc1` (stereo not given) came in with an RP-LC retention time of 972 s.

On to `O=C(COc1ccc(Cl)cc1)Nc1cccc2c1C(=O)NC2=O`, for which the RP-LC retention time stood at 854 s.

Take `Cn1c(C(=O)N2CCCC(C(=O)N3CCN(c4ccccc4)CC3)C2)cc2sccc21` (stereo not given): the RP-LC retention time came out at 892 s.

With `Cc1ccc(CNC(=O)N2CCc3c(c(-c4nc(C)no4)nn3C)C2)cc1`, the RP-LC retention time was 738 s.

`COCc1cc(=O)n(CC(=O)Nc2ccc(F)cc2)c(N)n1` returned an RP-LC retention time of 585 s.

In turn, `CC1CCN(C(=O)C2CCN(S(=O)(=O)c3ccc4c(c3)CCCC(=O)N4)CC2)CC1` returned an RP-LC retention time of 744 s.

With `CN(C)S(=O)(=O)c1ccc2c(c1)N(CC(=O)NCc1ccco1)C(=O)C1CCCCN21` (stereo not given), the RP-LC retention time turned out to be 820 s.

The compound `Fc1ccc(-c2nnc(Cc3nc(-c4ccc(Br)cc4)no3)o2)cc1` showed an RP-LC retention time of 1110 s.

Take `O=C(c1ccnc(-c2cccs2)c1)N1CCN(c2ncccn2)CC1`: the RP-LC retention time is 749 s.

As to `CCC1=NS(=O)(=O)c2cccnc2N1c1ccc(CC)cc1`, the RP-LC retention time came to 931 s.

As for `Cc1nc(C)c(C(=O)N2CCc3cc(-c4csc(C5CC5)n4)ccc32)s1`, the RP-LC retention time worked out at 1020 s.

`N#Cc1cc(-c2ccccc2)[nH]c1-c1nccc2ccccc12` showed an RP-LC retention time of 981 s.

As to `CN(C)CCCNC(=O)C1CCCN(c2cnc3nccnc3c2)C1` (stereo not given), the RP-LC retention time stood at 562 s.

`O=C(Cn1cccc1-c1nc(-c2ccc3c(c2)OCO3)no1)NC1CCCCC1` returned an RP-LC retention time of 1030 s.

For `CCc1ccc(NC(=O)Cc2c(C)n(C)c3nc(-c4ccccc4)nn3c2=O)cc1`, the RP-LC retention time was 887 s.

Compound `O=C(c1cccc(Br)c1)N1CCc2nc(-c3ccccc3)ncc2C1` had an RP-LC retention time of 1020 s.

In turn, `COc1ccccc1-c1nc(-c2ccc(S(=O)(=O)N3CCCC3)cc2)no1` gave an RP-LC retention time of 1080 s.

`O=C(Nc1ccc2nncn2c1)c1cccc(Cl)c1`: the RP-LC retention time came out at 719 s.

`CCC(=O)N(C1CCOCC1)C1CCN(Cc2ccc(C)cc2C)CC1` came in with an RP-LC retention time of 636 s.

`O=S(=O)(c1ccc(-c2nnc(C3CCCC3)o2)o1)N1CCN(C2CCCCC2)CC1`: the RP-LC retention time stood at 696 s.

For the compound `Cc1ccc2cc(CN3CCC4(CC3)CC(O)CCO4)c(=O)[nH]c2c1` (stereo not given), the RP-LC retention time turned out to be 562 s.

The compound `Cc1ccc(CN2C(=O)COC[C@H]2C(=O)NC2CC2)cc1` returned an RP-LC retention time of 658 s.

With `Cc1ccc(CNC(=O)CN2C(=O)CCc3cc(Br)ccc32)cc1`, the RP-LC retention time was found to be 917 s.

`CCN(CC)CCCNC(=O)C1CCCN(c2nnc(C)c3c(C)n(-c4ccc(Cl)cc4)nc23)C1` (stereo not given): the RP-LC retention time came to 598 s.

`Cc1cnc(C2CCC2)n1CC1CCN(C(=O)Nc2ccc3c(c2)OCCO3)C1` (stereo not given) showed an RP-LC retention time of 609 s.

`COC(=O)C1=CN(c2ccc(OC)cc2OC)c2cc(F)ccc2S1(=O)=O` yielded an RP-LC retention time of 875 s.

`CN(Cc1ccccc1)C(=O)C1CCN(S(=O)(=O)c2ccc(-c3noc(C4CC4)n3)cc2)CC1`: the RP-LC retention time was 1100 s.

In turn, `COc1cc2c(cc1CNC(=O)COc1ccc(F)cc1)OCCCO2` had an RP-LC retention time of 874 s.

On to `COc1ccc(NC(=O)NCCc2nc3cccnc3n2-c2ccccc2)cc1OC`, for which the RP-LC retention time turned out to be 657 s.

The compound `Cc1cc(C)cc(NC(=O)C2CCN(S(=O)(=O)c3ccc4c(c3)CCCC(=O)N4)CC2)c1` showed an RP-LC retention time of 834 s.

The compound `CN(C)C(=O)c1cc2c(s1)CCC(C(=O)N1CCN(c3ccccn3)CC1)C2` (stereo not given) displayed an RP-LC retention time of 570 s.

`CCc1ccc(Nc2nc(C(=O)NCCN3CCCC3)nc3ccccc23)cc1` gave an RP-LC retention time of 632 s.

`Cc1ccc(-n2ccn3c(CCC(=O)NCCc4c[nH]c5ccccc45)nnc3c2=O)cc1C` returned an RP-LC retention time of 757 s.

As to `CCn1c(C(=O)NCCC2=CCCCC2)cc2sc(Cl)cc21`, the RP-LC retention time was determined as 1310 s.

For `Cc1ccc(NC(=O)Cn2nc3n(c2=O)CCCCC3)cc1C`, the RP-LC retention time worked out at 717 s.

Take `CN(C)c1ccc(-c2nc(-c3cn(-c4ccc(F)cc4)nn3)no2)cc1`: the RP-LC retention time was determined as 1060 s.

`CCOC(=O)c1c(C)oc2nc(C)nc(N3CCc4cc(OC)c(OC)cc4C3C)c12` (stereo not given) registered an RP-LC retention time of 1060 s.

The compound `Cc1ccccc1NS(=O)(=O)c1c(C)c(-c2nnc(C3CCC3)o2)n(C)c1C` displayed an RP-LC retention time of 966 s.

For the compound `CCNc1nccc(N2CCC(CC(=O)NCC(C)C)CC2)n1`, the RP-LC retention time worked out at 563 s.

Regarding `CCOCCCNC(=O)C1CCCN(S(=O)(=O)c2ccc3c(ccn3CC)c2)C1` (stereo not given), the RP-LC retention time is 842 s.

As to `O=C(NC1CC1)c1ccnc(N2CCNC(c3ccccc3)C2)c1` (stereo not given), the RP-LC retention time is 583 s.

On to `Cc1ccccc1NC(=O)CSc1nnc2c3cc(-c4ccc(F)cc4)nn3ccn12`, for which the RP-LC retention time turned out to be 897 s.

As for `COc1ccccc1CNC(=O)Cn1nc2cc(-c3ccccn3)nc(C)n2c1=O`, the RP-LC retention time stood at 629 s.

Consider `O=C(Nc1ccc2c(c1)OCCO2)N1CC(c2nc(CCOCc3ccccc3)no2)C1`, for which the RP-LC retention time amounted to 853 s.

Compound `Cc1[nH]c(C(=O)N2CCC(CC(=O)NCCC(C)C)CC2)c(C)c1C` registered an RP-LC retention time of 813 s.

`Cc1noc(-c2cc(=O)n(CC(=O)NCc3cccs3)c3ccccc23)n1` registered an RP-LC retention time of 795 s.

As for `COc1cc(OC)cc(-c2noc(CCn3nc(-c4cccc(Cl)c4)ccc3=O)n2)c1`, the RP-LC retention time is 1040 s.

`N#Cc1ccccc1CN1CCC2(CCC2O)CC1` (stereo not given) gave an RP-LC retention time of 565 s.

In turn, `C[C@@H]1CCO[C@H]2Cn3cc(C(=O)NCc4ccc(F)cc4F)c(=O)c(O)c3C(=O)N12` registered an RP-LC retention time of 808 s.

In turn, `COc1ccc(OC)c(NS(=O)(=O)c2ccc3c(c2)C(=O)N(C)c2ncccc2O3)c1` displayed an RP-LC retention time of 872 s.

`CCNC(=O)c1nc(C(=O)NCc2ccc(F)cc2)cs1` yielded an RP-LC retention time of 751 s.

For the compound `COc1ccc(S(=O)(=O)N(CC(=O)NO)CC(C)C)cc1`, the RP-LC retention time was 615 s.

`Cc1ccc2c(c1)C(=O)NC1(CCN(C(=O)c3cccc(F)c3)CC1)N2C` gave an RP-LC retention time of 756 s.

In turn, `CN1CCN(C(=O)C2CCN(c3nc4ccc(-c5cccs5)nc4s3)CC2)CC1` gave an RP-LC retention time of 646 s.

Turning to `COC(=O)c1c(C)[nH]c(C(=O)N2CCC(CC(=O)NCc3ccccc3F)CC2)c1C`, the RP-LC retention time was determined as 743 s.

Compound `COC(=O)c1sc2cccc(F)c2c1S(=O)(=O)N1CCN(c2ccccn2)CC1` had an RP-LC retention time of 725 s.

With `O=C(Nc1cnn(-c2ncncc2N2CCSCC2)c1)NC1CCCCC1`, the RP-LC retention time was determined as 742 s.

Compound `COC[C@@H]1CN(Cc2cn[nH]c2-c2ccccc2)C[C@H]1c1ccccn1` displayed an RP-LC retention time of 604 s.

In turn, `CCn1ccc2cc(S(=O)(=O)N3CCC(C(=O)NCCCN4CCCCC4C)CC3)ccc21` (stereo not given) displayed an RP-LC retention time of 665 s.

Compound `CCn1c(=O)sc2cc(S(=O)(=O)N3CCC(C(=O)N4CCCCC4C)CC3)ccc21` (stereo not given) showed an RP-LC retention time of 896 s.

Compound `Cc1ccn(-c2ccc(C(=O)NC3CCCCC3)cn2)n1` returned an RP-LC retention time of 885 s.

`COC(=O)c1ncn2c1C(=O)N(Cc1cccc(Cl)c1)C(C)(C(=O)NCc1ccccc1)C2` (stereo not given) registered an RP-LC retention time of 755 s.

In the case of `O=C(C1CCOCC1)N1CCC(c2noc(-c3ccccn3)n2)C1` (stereo not given), the RP-LC retention time amounted to 599 s.

`CCOc1cccc(-c2noc(Cn3c(=O)n(Cc4cccc(OC)c4)c(=O)c4sccc43)n2)c1` came in with an RP-LC retention time of 1150 s.

`O=S(=O)(c1ccccc1Cl)N1CCc2nc(-c3ccccc3)ncc2C1` displayed an RP-LC retention time of 1080 s.

Take `CCn1ncc(NC(=O)COc2ccccc2C)c(N2CCCCC2)c1=O`: the RP-LC retention time was determined as 1150 s.

The compound `Cc1c(C(=O)N(C)C)cnn1-c1ccc(-c2nc(C3CC3)no2)cn1` came in with an RP-LC retention time of 790 s.

Compound `Cn1ncn2cc(S(=O)(=O)NCc3ccc(Cl)cc3)cc2c1=O` had an RP-LC retention time of 817 s.

`Cc1ccccc1NC(=O)N1CCN(Cc2cn(C)c3ccccc23)CC1` yielded an RP-LC retention time of 589 s.

Turning to `CCc1ccccc1NC(=O)N1CCN(c2cc(C)nc(N3CCCC3)n2)CC1`, the RP-LC retention time came to 670 s.
